Like-named read-outs stand apart in the source and are kept apart here.
Key:
Cryptosporidium parvum [1] = assay: In vitro anti-Cryptosporidium assay in HCT-8 cells (immunofluorescence); format: cell-based
Method: HCT-8 cells were cultured in supplemented RPMI-1640 medium in 96-well plates. When the cells were confluent, old medium was replaced with fresh medium. To one set of wells, varying concentrations of recombinant CpLDH inhibitors (reconstituted in DMSO and diluted in RPMI medium) were added, while another set was left without inhibitors. Paromomycin was used as a positive control drug reconstituted in distilled sterile water. Then, 4 x 10^4 freshly excysted sporozoites were added to each well and incubated at 37°C with 5% CO2. After 2 h incubation, varying concentrations of CpLDH inhibitors were added to the set of infected cells that were not treated initially. Control infected cells without inhibitors, but with added DMSO volumes equivalent to those used in the wells with inhibitors, were included. The cells were maintained in culture for a total of either 48 h or 72 h and processed for immunofluorescence assay as previously described. Briefly, medium was decanted and the cells fixed with methanol-acetic acid (9:1) for 2 minute at room temperature. The cells were rehydrated and permeabilized by two successive washes with buffer (0.1% Triton X-100, 0.35 M NaCl, 0.13 M Tris-base, pH 7.6) and blocked with 5% normal goat serum, followed by staining with antibody to C. parvum (SporoGlo; Waterborn, Inc.) overnight at 4°C. The stained cells were washed twice with PBS, followed by water, and then imaged with an inverted fluorescence microscope. Fluorescence quantification was done using ImageJ version 1.37v software (NIH).

Cryptosporidium parvum [2] = assay: In vivo anti-Cryptosporidium efficacy: real-time PCR of C. parvum DNA in feces of infected Gamma interferon knockout mice
Method: Gamma interferon knockout mice (B6.129S7-Ifng), 8 weeks of age, were purchased from Charles River, USA. The care and use of the mice was done following the guidelines of protocol number 17024 approved by the University of Illinois at Urbana-Champaign, USA. The animals were allowed to acclimatize for 1 week before experiments commenced. Stock solutions of recombinant CpLDH inhibitors reconstituted in DMSO were diluted in sterile distilled water to reduce the final amount of DMSO in the solution to less than 1% (v/v) before administering them to mice. […] An equivalent volume of PBS containing a cocktail of penicillin (100 units/ml), streptomycin (100 μg/ml), chloramphenicol (34 μg/ml) and amphotericin (0.25 μg/ml) was added to the fecal samples and stored at 4°C until use for quantification of C. parvum genomic DNA load. […]
Genomic DNA was extracted from individual fecal samples collected from mice at different days as described above. […] Quantification of the amount of C. parvum 18s rRNA gene (GenBank accession number AF164102) was performed essentially as described previously. […] The PCR product was fractionated on agarose gel, extracted using the QIAquick Gel extraction kit (Qiagen, USA), and the concentration measured by Nanodrop Spectrophotometer (Fisher, USA). Ten-fold serial dilutions of the extracted DNA fragment were made and used as quantification standards for real-time PCR. […]

Cryptosporidium parvum [3] = assay: Histopathology of distal small intestine of infected mice (denuded villi); format: in vivo; settings: 9 days post-infection
Method: Gamma interferon knockout mice (B6.129S7-Ifng), 8 weeks of age, were purchased from Charles River, USA. The care and use of the mice was done following the guidelines of protocol number 17024 approved by the University of Illinois at Urbana-Champaign, USA. The animals were allowed to acclimatize for 1 week before experiments commenced. Stock solutions of recombinant CpLDH inhibitors reconstituted in DMSO were diluted in sterile distilled water to reduce the final amount of DMSO in the solution to less than 1% (v/v) before administering them to mice. Prior to testing the anti-Cryptosporidium effect of the inhibitors in mice, the tolerability of each inhibitor was tested by oral gavage using varying dosages (100–2000 mg/kg body weight) of each inhibitor in groups of mice (three mice for each dose) daily for 7 days. Mice were observed daily for signs of toxicity including changes from normal physical activity, respiration, body temperature, feeding, posture, fur condition or occurrence of death. […] Mice were allocated to groups as follows: “Infected plus inhibitor treatment”; “Infected minus inhibitor treatment”; “Uninfected minus inhibitor treatment” and “Infected plus paromomycin treatment”. Each group contained at least three mice. Each mouse in the infection groups received 5,000 C. parvum oocysts (resuspended in 50 μl of PBS) by oral gavage. Mice were housed individually in cages lined with sterile gauze as bedding. One day post-infection (PI), daily oral gavage administration of recombinant CpLDH inhibitor or paromomycin commenced and continued for a total of 7 days. Untreated mice received an equivalent volume of sterile distilled water (containing DMSO equivalent to the amount administered in the inhibitor-treated group) by oral gavage. […] An equivalent volume of PBS containing a cocktail of penicillin (100 units/ml), streptomycin (100 μg/ml), chloramphenicol (34 μg/ml) and amphotericin (0.25 μg/ml) was added to the fecal samples and stored at 4°C until use for quantification of C. parvum genomic DNA load. […]

HCT-8 cells [4] = test system: HCT-8 cells; design: method as in PMID 10882689, PMID 18591280; settings: concentrations above 1000 μM; cited from earlier work
Cryptosporidium parvum [5] = test system: Cryptosporidium parvum; design: method as in PMID 18591280; settings: read-out: IC50 for inhibition of C. parvum growth in HCT-8 cells; cited from earlier work
HCT-8 cells [6] = assay: Compound cytotoxicity assay (WST-1 cell proliferation reagent); settings: read-out: CYTOTOXICITY IC50; HCT-8 cells, 24 h
Method: A colorimetric assay using the cell proliferation reagent WST-1 (Roche, USA) for the quantification of cell viability was performed. […] When the cells were confluent, the old medium was replaced with fresh medium with or without varying concentrations of chemical compound. After 24 h of culture, 10 μl of the cell proliferation reagent WST-1, (for quantification of cell viability) was added to each well, mixed and the plates incubated for 1 h at 37 C with 5% CO2 in the dark. […] Three independent assays were performed and the dose–response curves of the means of triplicate assays were generated using GraphPad PRISM software to derive the half maximal inhibitory concentration (IC50) of compounds in HCT-8 cells.

[7] = Tolerability in mice, daily oral gavage for 7 days; format: in vivo; settings: daily oral gavage over 7 days, no toxicity signs
Method: Gamma interferon knockout mice (B6.129S7-Ifng), 8 weeks of age, were purchased from Charles River, USA. The care and use of the mice was done following the guidelines of protocol number 17024 approved by the University of Illinois at Urbana-Champaign, USA. The animals were allowed to acclimatize for 1 week before experiments commenced. Stock solutions of recombinant CpLDH inhibitors reconstituted in DMSO were diluted in sterile distilled water to reduce the final amount of DMSO in the solution to less than 1% (v/v) before administering them to mice. Prior to testing the anti-Cryptosporidium effect of the inhibitors in mice, the tolerability of each inhibitor was tested by oral gavage using varying dosages (100–2000 mg/kg body weight) of each inhibitor in groups of mice (three mice for each dose) daily for 7 days. Mice were observed daily for signs of toxicity including changes from normal physical activity, respiration, body temperature, feeding, posture, fur condition or occurrence of death. […] An equivalent volume of PBS containing a cocktail of penicillin (100 units/ml), streptomycin (100 μg/ml), chloramphenicol (34 μg/ml) and amphotericin (0.25 μg/ml) was added to the fecal samples and stored at 4°C until use for quantification of C. parvum genomic DNA load. […]

[8] = target: recombinant CpLDH protein (Cryptosporidium parvum, UniProt Q9GT92, F198L/K295E/R251K)

SMILES	IC50 (Cryptosporidium parvum [1]; Cryptosporidium parvum, HCT-8, 48 h post-infection, positive control, time of addition not specified, read-out: IC50, inhibition of C. parvum growth)	IC50 (Cryptosporidium parvum [1]; Cryptosporidium parvum, HCT-8, 72 h post-infection, positive control, time of addition not specified, read-out: IC50, inhibition of C. parvum growth)	reduction of shedding of C. parvum in mice feces compared to untreated infected mice (Cryptosporidium parvum [2]; day 7 post-infection, NSC158011 400 mg/kg, paromomycin 100 mg/kg)	reduction of percentage of denuded intestinal villi compared to infected untreated mice (Cryptosporidium parvum [3])	cytotoxicity in HCT-8 cells (HCT-8 cells [4])	IC50 (Cryptosporidium parvum [5])	IC50 (HCT-8 cells [6])	C. parvum proliferation in vitro, initial screen (in words) (Cryptosporidium parvum [1]; 48 h post-infection, concentration at least 50% lower than cytotoxicity IC50)	IC50 (Cryptosporidium parvum [1]; compound added at the time of infection, HCT-8 cells, read-out: IC50, inhibition of C. parvum growth at 72 h p.i.)	IC50 (Cryptosporidium parvum [1]; read-out: IC50, inhibition of C. parvum growth at 48 h p.i. (2 h), compound added 2 h post-infection, HCT-8 cells)	IC50 (Cryptosporidium parvum [1]; read-out: IC50, inhibition of C. parvum growth at 48 h p.i., compound added at the time of infection, HCT-8 cells)	IC50 (Cryptosporidium parvum [1]; read-out: IC50, inhibition of C. parvum growth at 72 h p.i. (2 h), compound added 2 h post-infection, HCT-8 cells)	highest tolerable dose in mice [7]	lower C. parvum DNA load in feces compared to infected untreated (Cryptosporidium parvum [2]; 250, 500 and 1000 mg/kg, day 3 until day 8)	intestinal histopathology (in words) (Cryptosporidium parvum [3]; distal small intestine)	MEAN CpLDH INHIBITION (%) [8]	IC50 ([8]; read-out: IC50, inhibition of recombinant CpLDH activity)
NC[C@@H]1O[C@H](O[C@H]2[C@@H](O)[C@H](O[C@@H]3[C@@H](O)[C@H](N)C[C@H](N)[C@H]3O[C@H]3O[C@H](CO)[C@@H](O)[C@H](O)[C@H]3N)O[C@@H]2CO)[C@H](N)[C@@H](O)[C@@H]1O [paromomycin, reference compound]	450 µM	400 µM	about 3000 fold	≥ 7 fold	negligible	711 µM											
O=C1c2ccccc2C(=O)c2c(O)c(O)cc(O)c21 [NSC10447]				≥ 7 fold			290 µM	significantly (P < 0.05) inhibit C. parvum proliferation	83.6 µM	79.5 µM	72.7 µM	95.2 µM	1000 mg/kg	at least 50%	prevented villous atrophy and maintained the integrity of the intestinal mucosa	39.07%	46.3 µM

From publication PMC6687188, “Novel lactate dehydrogenase inhibitors with in vivo efficacy against Cryptosporidium parvum” (PLoS Pathogens, 2019)
